Source: patent publication US20260007681A1, “INDOLE DERIVATIVES AS ESTROGEN RECEPTOR DEGRADERS” (REGENTS OF THE UNIVERSITY OF MICHIGAN, priority 2022, published 2026)

Molecular target: ER (Homo sapiens (Human), UniProt P03372)
Assay: Western blot analysis (Compounds B1-B278)
Assay type: cell-based
Conditions: ER degradation by traditional Western blot; DC50 classes
Summary of the method: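 Compound-treated cells were lysed in RIPA buffer (Tris.HCl pH 7.6, 1% NP-40, deoxycholate, 0.1% SDS) with protease inhibitors; equal protein was resolved on 10% SDS-PAGE, transferred to PVDF and immunoblotted. Band intensities were quantified and normalized to GAPDH.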

Sequence of ER (P03372 whole entry): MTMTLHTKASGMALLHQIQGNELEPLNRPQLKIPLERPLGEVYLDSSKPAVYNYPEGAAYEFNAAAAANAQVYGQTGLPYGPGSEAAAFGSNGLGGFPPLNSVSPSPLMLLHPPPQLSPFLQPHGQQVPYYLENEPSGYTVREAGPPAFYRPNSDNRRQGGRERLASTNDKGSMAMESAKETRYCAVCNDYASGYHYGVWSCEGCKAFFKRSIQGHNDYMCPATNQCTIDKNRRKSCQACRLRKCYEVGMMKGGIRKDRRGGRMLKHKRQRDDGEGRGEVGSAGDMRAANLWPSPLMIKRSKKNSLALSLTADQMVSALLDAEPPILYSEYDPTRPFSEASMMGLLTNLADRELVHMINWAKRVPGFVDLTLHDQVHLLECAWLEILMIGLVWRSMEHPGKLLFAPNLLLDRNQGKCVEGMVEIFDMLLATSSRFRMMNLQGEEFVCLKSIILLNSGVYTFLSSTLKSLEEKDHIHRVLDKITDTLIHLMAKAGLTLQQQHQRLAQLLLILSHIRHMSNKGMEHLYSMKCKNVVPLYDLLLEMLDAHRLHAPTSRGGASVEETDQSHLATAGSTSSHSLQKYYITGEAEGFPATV

Traditional Western Degradation Potency | Structure (SMILES)
C (“C”: >100 nM) | C[C@@H]1Cc2c([nH]c3ccccc23)[C@@H](c2cnc(N3CCC4(CC3)CC(CN3Cc5cc6c(cc5C3)C(=O)N(C3CCC(=O)NC3=O)C6=O)C4)nc2)N1CC(C)(C)F (stereo partly drawn) [Compound B186, 2-(2,6-dioxopiperidin-3-yl)-6-((7-(5-((1R,3R)-2-(2-fluoro-2-methylpropyl)-3-methyl-2,3,4,9-tetrahydro-1H-pyrido[3,4-b]indol-1-yl)pyrimidin-2-yl)-7-azaspiro[3.5]nonan-2-yl)methyl)-6,7-dihydropyrrolo[3,4-f]isoindole-1,3(2H,5H)-dione]
B (“B”: 10-100 nM) | C[C@@H]1Cc2c([nH]c3ccccc23)[C@@H](c2cnc(N3CCC4(CC3)CC(CN3Cc5cc6c(cc5C3)C(=O)N(C3CCC(=O)NC3=O)C6=O)C4)nc2)N1CC(F)F (stereo partly drawn) [Compound B187, 6-((7-(5-((1R,3R)-2-(2,2-difluoroethyl)-3-methyl-2,3,4,9-tetrahydro-1H-pyrido[3,4-b]indol-1-yl)pyrimidin-2-yl)-7-azaspiro[3.5]nonan-2-yl)methyl)-2-(2,6-dioxopiperidin-3-yl)-6,7-dihydropyrrolo[3,4-f]isoindole-1,3(2H,5H)-dione]
A (“A”: <10 nM) | C[C@@H]1Cc2c([nH]c3ccccc23)[C@@H](c2c(F)cc(N3CCC(CN4CCC(C(=O)N5Cc6cc7c(cc6C5)C(=O)N(C5CCC(=O)NC5=O)C7=O)CC4)C3)cc2F)N1CC(F)F (stereo partly drawn) [Compound B188, 6-(1-((1-(4-((1R,3R)-2-(2,2-difluoroethyl)-3-methyl-2,3,4,9-tetrahydro-1H-pyrido[3,4-b]indol-1-yl)-3,5-difluorophenyl)pyrrolidin-3-yl)methyl)piperidine-4-carbonyl)-2-(2,6-dioxopiperidin-3-yl)-6,7-dihydropyrrolo[3,4-f]isoindole-1,3(2H,5H)-dione]
B (“B”: 10-100 nM) | C[C@@H]1Cc2c([nH]c3ccccc23)[C@@H](c2c(F)cc(N3CCCC(CN4CCC(C(=O)N5Cc6cc7c(cc6C5)C(=O)N(C5CCC(=O)NC5=O)C7=O)CC4)C3)cc2F)N1CC(F)F (stereo partly drawn) [Compound B189, 6-(1-((1-(4-((1R,3R)-2-(2,2-difluoroethyl)-3-methyl-2,3,4,9-tetrahydro-1H-pyrido[3,4-b]indol-1-yl)-3,5-difluorophenyl)piperidin-3-yl)methyl)piperidine-4-carbonyl)-2-(2,6-dioxopiperidin-3-yl)-6,7-dihydropyrrolo[3,4-f]isoindole-1,3(2H,5H)-dione]
B (“B”: 10-100 nM) | C[C@@H]1Cc2c([nH]c3ccccc23)[C@@H](c2c(F)cc(N3CCCC(CN4CCC(N5Cc6cc7c(cc6C5)C(=O)N(C5CCC(=O)NC5=O)C7=O)CC4)C3)cc2F)N1CC(F)F (stereo partly drawn) [Compound B190, 6-(1-((1-(4-((1R,3R)-2-(2,2-difluoroethyl)-3-methyl-2,3,4,9-tetrahydro-1H-pyrido[3,4-b]indol-1-yl)-3,5-difluorophenyl)piperidin-3-yl)methyl)piperidin-4-yl)-2-(2,6-dioxopiperidin-3-yl)-6,7-dihydropyrrolo[3,4-f]isoindole-1,3(2H,5H)-dione]
C (“C”: >100 nM) | C[C@@H]1Cc2c([nH]c3ccccc23)[C@@H](c2c(F)cc(N3CC4(CCN4CC(=O)N4Cc5cc6c(cc5C4)C(=O)N(C4CCC(=O)NC4=O)C6=O)C3)cc2F)N1CC(F)F (stereo partly drawn) [Compound B191, 6-(2-(6-(4-((1R,3R)-2-(2,2-difluoroethyl)-3-methyl-2,3,4,9-tetrahydro-1H-pyrido[3,4-b]indol-1-yl)-3,5-difluorophenyl)-1,6-diazaspiro[3.3]heptan-1-yl)acetyl)-2-(2,6-dioxopiperidin-3-yl)-6,7-dihydropyrrolo[3,4-f]isoindole-1,3(2H,5H)-dione]
C (“C”: >100 nM) | C[C@@H]1Cc2c([nH]c3ccccc23)[C@@H](c2c(F)cc(N3CC4(CCN4CC(=O)N4Cc5cc6c(cc5C4)C(=O)N(C4CCC(=O)NC4=O)C6)C3)cc2F)N1CC(F)F (stereo partly drawn) [Compound B192, 3-(6-(2-(6-(4-((1R,3R)-2-(2,2-difluoroethyl)-3-methyl-2,3,4,9-tetrahydro-1H-pyrido[3,4-b]indol-1-yl)-3,5-difluorophenyl)-1,6-diazaspiro[3.3]heptan-1-yl)acetyl)-1-oxo-3,5,6,7-tetrahydropyrrolo[3,4-f]isoindol-2(1H)-yl)piperidine-2,6-dione]
A (“A”: <10 nM) | C[C@@H]1Cc2c([nH]c3ccccc23)[C@@H](c2c(F)cc(N3CCC4(CCN(CC(=O)N5Cc6cc7c(cc6C5)C(=O)N(C5CCC(=O)NC5=O)C7=O)C4)CC3)cc2F)N1CC(F)F (stereo partly drawn) [Compound B193, 6-(2-(8-(4-((1R,3R)-2-(2,2-difluoroethyl)-3-methyl-2,3,4,9-tetrahydro-1H-pyrido[3,4-b]indol-1-yl)-3,5-difluorophenyl)-2,8-diazaspiro[4.5]decan-2-yl)acetyl)-2-(2,6-dioxopiperidin-3-yl)-6,7-dihydropyrrolo[3,4-f]isoindole-1,3(2H,5H)-dione]
A (“A”: <10 nM) | C[C@@H]1Cc2c([nH]c3ccccc23)[C@@H](c2c(F)cc(N3CCC4(CCN(CC(=O)N5Cc6cc7c(cc6C5)C(=O)N(C5CCC(=O)NC5=O)C7)C4)CC3)cc2F)N1CC(F)F (stereo partly drawn) [Compound B194, 3-(6-(2-(8-(4-((1R,3R)-2-(2,2-difluoroethyl)-3-methyl-2,3,4,9-tetrahydro-1H-pyrido[3,4-b]indol-1-yl)-3,5-difluorophenyl)-2,8-diazaspiro[4.5]decan-2-yl)acetyl)-1-oxo-3,5,6,7-tetrahydropyrrolo[3,4-f]isoindol-2(1H)-yl)piperidine-2,6-dione]
A (“A”: <10 nM) | C[C@@H]1Cc2c([nH]c3ccccc23)[C@@H](c2c(F)cc(N3CCC4(CCN(C(=O)CN5Cc6cc7c(cc6C5)C(=O)N(C5CCC(=O)NC5=O)C7)C4)CC3)cc2F)N1CC(F)F (stereo partly drawn) [Compound B195, 3-(6-(2-(8-(4-((1R,3R)-2-(2,2-difluoroethyl)-3-methyl-2,3,4,9-tetrahydro-1H-pyrido[3,4-b]indol-1-yl)-3,5-difluorophenyl)-2,8-diazaspiro[4.5]decan-2-yl)-2-oxoethyl)-1-oxo-3,5,6,7-tetrahydropyrrolo[3,4-f]isoindol-2(1H)-yl)piperidine-2,6-dione]
A (“A”: <10 nM) | C[C@@H]1Cc2c([nH]c3ccccc23)[C@@H](c2c(F)cc(N3CC[C@@H](CN4CCC(C(=O)N5Cc6cc7c(cc6C5)C(=O)N(C5CCC(=O)NC5=O)C7)CC4)C3)cc2F)N1CC(F)F (stereo partly drawn) [Compound B196, 3-(6-(1-(((S)-1-(4-((1R,3R)-2-(2,2-difluoroethyl)-3-methyl-2,3,4,9-tetrahydro-1H-pyrido[3,4-b]indol-1-yl)-3,5-difluorophenyl)pyrrolidin-3-yl)methyl)piperidine-4-carbonyl)-1-oxo-3,5,6,7-tetrahydropyrrolo[3,4-f]isoindol-2(1H)-yl)piperidine-2,6-dione]
A (“A”: <10 nM) | C[C@@H]1Cc2c([nH]c3ccccc23)[C@@H](c2c(F)cc(N3CC[C@@H](CN4CCC(C(=O)N5Cc6cc7c(cc6C5)C(=O)N(C5CCC(=O)NC5=O)C7=O)CC4)C3)cc2F)N1CC(F)F (stereo partly drawn) [Compound B197, 6-(1-(((S)-1-(4-((1R,3R)-2-(2,2-difluoroethyl)-3-methyl-2,3,4,9-tetrahydro-1H-pyrido[3,4-b]indol-1-yl)-3,5-difluorophenyl)pyrrolidin-3-yl)methyl)piperidine-4-carbonyl)-2-(2,6-dioxopiperidin-3-yl)-6,7-dihydropyrrolo[3,4-f]isoindole-1,3(2H,5H)-dione]
B (“B”: 10-100 nM) | C[C@@H]1Cc2c([nH]c3ccccc23)[C@@H](c2c(F)cc(N3CCC4(CCN(C(=O)CN5Cc6cc7c(cc6C5)C(=O)N(C5CCC(=O)NC5=O)C7=O)CC4)CC3)cc2F)N1CC(F)(F)F (stereo partly drawn) [Compound B199, 6-(2-(9-(3,5-difluoro-4-((1R,3R)-3-methyl-2-(2,2,2-trifluoroethyl)-2,3,4,9-tetrahydro-1H-pyrido[3,4-b]indol-1-yl)phenyl)-3,9-diazaspiro[5.5]undecan-3-yl)-2-oxoethyl)-2-(2,6-dioxopiperidin-3-yl)-6,7-dihydropyrrolo[3,4-f]isoindole-1,3(2H,5H)-dione]
B (“B”: 10-100 nM) | C[C@@H]1Cc2c([nH]c3ccccc23)[C@@H](c2c(F)cc(N3CCC4(CC3)CN(C(=O)CN3Cc5cc6c(cc5C3)C(=O)N(C3CCC(=O)NC3=O)C6=O)C4)cc2F)N1CC(F)(F)F (stereo partly drawn) [Compound B200, 6-(2-(7-(3,5-difluoro-4-((1R,3R)-3-methyl-2-(2,2,2-trifluoroethyl)-2,3,4,9-tetrahydro-1H-pyrido[3,4-b]indol-1-yl)phenyl)-2,7-diazaspiro[3.5]nonan-2-yl)-2-oxoethyl)-2-(2,6-dioxopiperidin-3-yl)-6,7-dihydropyrrolo[3,4-f]isoindole-1,3(2H,5H)-dione]
B (“B”: 10-100 nM) | C[C@@H]1Cc2c([nH]c3ccccc23)[C@@H](c2c(F)cc(N3CCC(C(=O)N4CCC(N5Cc6cc7c(cc6C5)C(=O)N(C5CCC(=O)NC5=O)C7=O)CC4)CC3)cc2F)N1CC(F)(F)F (stereo partly drawn) [Compound B201, 6-(1-(1-(3,5-difluoro-4-((1R,3R)-3-methyl-2-(2,2,2-trifluoroethyl)-2,3,4,9-tetrahydro-1H-pyrido[3,4-b]indol-1-yl)phenyl)piperidine-4-carbonyl)piperidin-4-yl)-2-(2,6-dioxopiperidin-3-yl)-6,7-dihydropyrrolo[3,4-f]isoindole-1,3(2H,5H)-dione]
B (“B”: 10-100 nM) | C[C@@H]1Cc2c([nH]c3ccccc23)[C@@H](c2c(F)cc(N3CC(C(=O)N4CC(N5Cc6cc7c(cc6C5)C(=O)N(C5CCC(=O)NC5=O)C7=O)C4)C3)cc2F)N1CC(F)F (stereo partly drawn) [Compound B202, 6-(1-(1-(4-((1R,3R)-2-(2,2-difluoroethyl)-3-methyl-2,3,4,9-tetrahydro-1H-pyrido[3,4-b]indol-1-yl)-3,5-difluorophenyl)azetidine-3-carbonyl)azetidin-3-yl)-2-(2,6-dioxopiperidin-3-yl)-6,7-dihydropyrrolo[3,4-f]isoindole-1,3(2H,5H)-dione]
